Measured values published in PubChem BioAssay AID256 (DTP/NCI, 2004).
Several values for one entry are separate records, joined by “and”; a condition that tells them apart may be missing. Identical values can stand only once. Toxic doses and inconclusive results are not listed. The calls were made as follows: active = survival T/C of 150% or more; inactive = T/C below 125% in these data.

System: CD2F1 mice, L1210 leukemia ip, survival T/C
Test: NCI In Vivo Anticancer Drug Screen. Data for tumor model L1210 Leukemia (intraperitoneal) in CD2F1 (CDF1) mice
Conditions: endpoint: mean survival time, higher = longer survival
In short: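 Each value reflects a quotient of treated over vehicle control outcomes in mice with a transplanted tumor.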

[1] = dose: 100.0 mg/kg/injection, schedule: Q04DX003 (ip), vehicle: saline with Tween-80
[2] = dose: 200.0 mg/kg/injection, schedule: Q04DX003 (ip), vehicle: saline with Tween-80
[3] = dose: 400.0 mg/kg/injection, schedule: Q04DX003 (ip), vehicle: saline with Tween-80
[4] = dose: 50.0 mg/kg/injection, schedule: Q01DX009 (ip), vehicle: saline with Tween-80
[5] = dose: 100.0 mg/kg/injection, schedule: Q01DX009 (ip), vehicle: saline with Tween-80
[6] = dose: 200.0 mg/kg/injection, schedule: Q01DX009 (ip), vehicle: saline with Tween-80
[7] = dose: 400.0 mg/kg/injection, schedule: Q01DX009 (ip), vehicle: saline with Tween-80
[8] = dose: 50.0 mg/kg/injection, schedule: Q04DX003 (ip), vehicle: saline
[9] = dose: 100.0 mg/kg/injection, schedule: Q04DX003 (ip), vehicle: saline
[10] = dose: 200.0 mg/kg/injection, schedule: Q04DX003 (ip), vehicle: saline
[11] = dose: 50.0 mg/kg/injection, schedule: Q04DX002 (ip), vehicle: saline with Tween-80
[12] = dose: 100.0 mg/kg/injection, schedule: Q04DX002 (ip), vehicle: saline with Tween-80

Measured: T/C

CN(CC[NH-])CC[NH-].[I][Pt]
inactive: dose: 12.5 mg/kg/injection, schedule: Q04DX003 (ip), vehicle: saline with Tween-80 100 % of control | dose: 25.0 mg/kg/injection, schedule: Q04DX003 (ip), vehicle: saline with Tween-80 94 % of control | dose: 50.0 mg/kg/injection, schedule: Q04DX003 (ip), vehicle: saline with Tween-80 98 % of control | [1] 100 % of control | [2] 94 % of control

CC(O)(CCCCCCCC(C)(O)c1ccccc1)c1ccccc1 (configuration not stated)
inactive: [1] 113 % of control | [2] 103 % of control | [3] 88 % of control

CCOC(=O)c1ccc(Nc2nnc(-c3ccc(OC)cc3OC)s2)cc1
inactive: dose: 25.0 mg/kg/injection, schedule: Q01DX009 (ip), vehicle: saline with Tween-80 94 % of control | [4] 88 % of control | [5] 88 % of control and 91 % of control

c1cc(N2CCCC2)cc(N2CCCC2)c1
inactive: [5] 96 % of control | [1] 102 % of control | [6] 88 % of control | [2] 106 % of control | [7] 88 % of control | [3] 98 % of control

C=CCNC(=S)N/N=C\c1cc(OC)c(OC)c(OC)c1
inactive: [5] 93 % of control | [6] 97 % of control | [7] 106 % of control

C=C(C)C12CC(C)C34OC5(CCCCCCCC(C)C6C(C)C(OC(=O)c7ccccc7)C(O)(C(O)C7(COC(=O)CCCCCCCCCCCCCCC)OC7C3C1O5)C64)O2 (configuration not stated)
inactive: dose: 1.5 micrograms/kg/injection, schedule: Q01DX009 (ip), vehicle: saline 103 % of control | dose: 3.1 micrograms/kg/injection, schedule: Q01DX009 (ip), vehicle: saline 104 % of control | dose: 6.2 micrograms/kg/injection, schedule: Q01DX009 (ip), vehicle: saline 97 % of control | dose: 12.5 micrograms/kg/injection, schedule: Q01DX009 (ip), vehicle: saline 104 % of control | dose: 25.0 micrograms/kg/injection, schedule: Q01DX009 (ip), vehicle: saline 95 % of control | dose: 50.0 micrograms/kg/injection, schedule: Q01DX009 (ip), vehicle: saline 101 % of control

Ic1ncnc2c1ncn2C1CCCO1 (configuration not stated)
inactive: [8] 96 % of control | [9] 94 % of control | [10] 94 % of control

O=C(Cn1cc[n+](CC(=O)c2ccccc2)c1)c1ccccc1
inactive: [1] 109 % of control

Cc1ccc(C2=C(O)C(=O)C(c3ccc(C)cc3)C2=O)cc1 (configuration not stated)
inactive: [1] 93 % of control | [2] 96 % of control

CC(C)(C)C(=O)CC(O)(C(F)(F)Cl)C(F)(F)Cl
inactive: [4] 111 % of control | [5] 116 % of control and 108 % of control | [6] 92 % of control and 95 % of control | [7] 113 % of control

O=[N+]([O-])O.[NH-]C1CCCCC1[NH-].[NH-]C1CCCCC1[NH-].[Ni+2] (configuration not stated)
inactive: [11] 110 % of control | [12] 113 % of control

O=C(O)/C=C\c1cccc([N+](=O)[O-])c1
inactive: [5] 94 % of control | [6] 103 % of control | [7] 88 % of control

CCN(CC)CCSCCSCCN(CC)CC
inactive: dose: 100.0 mg/kg/injection, schedule: Q01DX001 (ip), vehicle: saline 100 % of control | dose: 200.0 mg/kg/injection, schedule: Q01DX001 (ip), vehicle: saline 100 % of control

CCOC(=O)C1C2CCC(O2)C1C#N (configuration not stated)
inactive: dose: 25.0 mg/kg/injection, schedule: Q04DX002 (ip), vehicle: saline with Tween-80 98 % of control | [11] 98 % of control | [12] 98 % of control

O=C(O)C1C2CC3C(OC(=O)C31)C2Br (configuration not stated)
inactive: [9] 105 % of control | [10] 96 % of control | dose: 400.0 mg/kg/injection, schedule: Q04DX003 (ip), vehicle: saline 102 % of control

CCCOc1cc[n+]([O-])c2ccccc12
inactive: [12] 94 % of control | dose: 200.0 mg/kg/injection, schedule: Q04DX002 (ip), vehicle: saline with Tween-80 94 % of control

c1ccc(-c2ccccc2NC2=NCCO2)cc1
inactive: dose: 12.5 mg/kg/injection, schedule: Q04DX003 (ip), vehicle: saline 94 % of control | dose: 25.0 mg/kg/injection, schedule: Q04DX003 (ip), vehicle: saline 94 % of control | [8] 90 % of control

NC(=S)N/N=C/c1ccc2c(c1)OCO2
inactive: [4] 98 % of control | [5] 110 % of control | [6] 98 % of control

CC1NC(=O)OC12CCCCC2 (configuration not stated)
inactive: [5] 101 % of control | [6] 107 % of control

CC(=O)OCC1OC(OC(C)=O)C(NC(=O)NS(=O)(=O)c2ccc(C)cc2)C(OC(C)=O)C1OC(C)=O (configuration not stated)
inactive: dose: 12.5 mg/kg/injection, schedule: Q01DX009 (ip), vehicle: other 105 % of control | dose: 25.0 mg/kg/injection, schedule: Q01DX009 (ip), vehicle: other 98 % of control | dose: 50.0 mg/kg/injection, schedule: Q01DX009 (ip), vehicle: other 93 % of control | dose: 100.0 mg/kg/injection, schedule: Q01DX009 (ip), vehicle: other 94 % of control | dose: 200.0 mg/kg/injection, schedule: Q01DX009 (ip), vehicle: other 94 % of control

O=C(CSCC(=O)c1ccccc1)c1ccccc1
inactive: dose: 400.0 mg/kg/injection, schedule: Q04DX002 (ip), vehicle: Klucel (hydroxypropylcellulose) (HPC) 89 % of control

C/C(=C/c1ccccc1)C(O)C(=O)O (configuration not stated)
inactive: dose: 50.0 mg/kg/injection, schedule: Q04DX003 (ip), vehicle: Klucel (hydroxypropylcellulose) (HPC) 100 % of control | dose: 200.0 mg/kg/injection, schedule: Q04DX003 (ip), vehicle: Klucel (hydroxypropylcellulose) (HPC) 100 % of control

CN(C)N=Nc1cc(C#N)cc(C#N)c1
inactive: dose: 79.0 mg/kg/injection, schedule: Q01DX009 (ip), vehicle: Klucel (hydroxypropylcellulose) (HPC) 110 % of control | dose: 118.0 mg/kg/injection, schedule: Q01DX009 (ip), vehicle: Klucel (hydroxypropylcellulose) (HPC) 110 % of control | dose: 177.0 mg/kg/injection, schedule: Q01DX009 (ip), vehicle: Klucel (hydroxypropylcellulose) (HPC) 119 % of control | dose: 266.0 mg/kg/injection, schedule: Q01DX009 (ip), vehicle: Klucel (hydroxypropylcellulose) (HPC) 113 % of control | dose: 400.0 mg/kg/injection, schedule: Q01DX009 (ip), vehicle: Klucel (hydroxypropylcellulose) (HPC) 89 % of control

COc1ccc(CC#N)cc1OC
inactive: dose: 3.75 mg/kg/injection, schedule: Q01DX009 (ip), vehicle: saline with Tween-80 95 % of control | dose: 3.75 mg/kg/injection, schedule: Q04DX003 (ip), vehicle: saline with Tween-80 107 % of control | dose: 7.5 mg/kg/injection, schedule: Q01DX009 (ip), vehicle: saline with Tween-80 95 % of control | dose: 7.5 mg/kg/injection, schedule: Q04DX003 (ip), vehicle: saline with Tween-80 103 % of control | dose: 15.0 mg/kg/injection, schedule: Q01DX009 (ip), vehicle: saline with Tween-80 95 % of control | dose: 15.0 mg/kg/injection, schedule: Q04DX003 (ip), vehicle: saline with Tween-80 103 % of control

Cc1cc2ccc(OC(=O)c3ccc(N=C(N)N)cc3)cc2oc1=O
inactive: [5] 91 % of control | [6] 91 % of control | [7] 86 % of control

CC(=O)Nc1ccc(C)c(Cl)c1
inactive: [5] 96 % of control | [1] 101 % of control | [6] 94 % of control | [2] 103 % of control | [7] 88 % of control | [3] 101 % of control
